Where a SMILES comes first, the peptide text is derived from it. The star is where a group is joined. Cbz = O=C(OCc1ccccc1)*
What was measured:
[1] = Cobalt (II) binding assay in vitro (absorbance spectrum); details: absorbance 300-700 nm
Method: For each cluster I compound (CIL13, −52, and −64), prepared two-fold dilution series with DMSO. We added 30 μL per well of either water or 10 μM cobalt (II) chloride solution to each well of a 384-well plate. Dilution series of each compound in DMSO were added by 10 μL per well. After solutions had been mixed by shaking of the plate using a Victor 3 plate reader (PerkinElmer), absorbance was scanned between 300 and 700 nm for each compound. Finally the following Absorbance value for each compound was plotted (see FIG. 9B):
[formula] where Abs is the absorbance at each wavelength. Search of Commercially Available Structural Analogs of CIL41/70.

[2] = system: HT-1080 cells; experiment: Cell viability assay (Alamar Blue), lethal compounds with or without modulators; type: cell-based; details: for effect of ferroptosis inhibitors (α-tocopherol, deferoxamine) on lethality: cotreatment
Method: 1,000 cells per 36 μl were seeded in each well in 384-well plates. Lethal compounds were dissolved, and a twofold, 12-point dilution series was prepared in DMSO. Compound solutions were further diluted with media at 1:25, and 4 μl per well of the diluted solutions was added to cell cultures immediately after cells were seeded. […] When other cell-death-modulating compounds (100 nM sodium selenite, 1 μM cerivastatin, 100 μg/mL mevalonic acid) were used in cotreatments, they were supplemented to cell culture for 24 h before lethal compounds were added to cell culture, after which cells were further incubated for 24 h at 37° C. under 5% CO2. On the day of the viability measurement, we added 10 μl per well of 50% Alamar Blue diluted in media (Life Technologies) and further incubated the cells at 37° C. for 6 h. Fluorescence intensity (excitation/emission: 530/590) was measured with a Victor 3 plate reader (PerkinElmer), and the normalized viability was calculated as VL=(IL−I0)/(IV−I0), where VL, I0, IV, and IL are the normalized viability and the raw fluorescence intensities from the wells containing media, cells treated with a vehicle (negative control), and cells with the lethal compound (L), respectively. When the effect of a chemical modulator (M) on L was calculated, we instead used the equation VL|M=(IM,L−I0)/(IM,V−I0), where VL|M, IM,L and IM,V are the normalized viability, and fluorescence intensity from cells treated with […], respectively. The viability was typically measured in biological triplicate unless otherwise specified. A representative dose-response curve, the mean and standard error of normalized viability from one replicate were plotted. […]

[3] = system: BJeLR, DRD, BJeHLT, and BJeH; experiment: Viability of four engineered BJ cell lines (HRAS G12V selectivity); type: cell-based, human; details: 48 h
[4] = system: HT-1080 or BJeLR cells; experiment: Analysis of ROS generation (H2-DCFDA flow cytometry); type: cell-based
Method: Grew 200,000 HT-1080 or BJeLR cells in six-well plates at 37° C. for 16 h. Cells were treated with test compounds, trypsinized, pelleted, and washed once with PBS. For lipophilic or aqueous ROS detection, cells were re-suspended in Hanks' Balanced Salt Solution (HBSS; Life Technologies) containing test compounds as well as C11-BODIPY(581/591) (2 μM) or H2-DCFDA (25 μM), respectively (Life Technologies), and incubated for 10 min at 37° C. Cells were then pelleted, re-suspended in 500 μL HBSS, strained through a 40-μm cell strainer (BD Falcon), and analyzed using a BD Accuri C6 flow cytometer (BD Biosciences). Both dyes were measured in the FL1 channel. Experiments were done in biological triplicates.

[5] = system: GPX4; experiment: Western blotting of GPX4 protein abundance; type: cell-based, human
Method: Seeded 300,000 cells (HT-1080 or BJeLR) per well in six-well plates. For cotreatment, ferroptosis inducers (10 μM erastin for 11 h, 0.5 μM (1S, 3R)-RSL3 for 2 h, or 5 μM FIN56) and 100 μM α-tocopherol were added to cell culture at the same time, and cells were then incubated for 10 h (FIG. 2E). When other death-modulating compounds (100 nM sodium selenite, 1 μM cerivastatin, 100 μg/mL mevalonic acid, 30 μM C75, or 2 μM cerulenin) were used in cotreatments, cells were pre-incubated with the modulators for 24 h before being treated with ferroptosis inducers for 6 h. Cell lysis, SDS-PAGE and protein transfer to PVDF membrane were performed as previously described (Dixon et al. 2012). We used the following antibodies: anti-human α-tubulin (Santa Cruz Biotechnology, sc-32293, 1:10,000 dilution), anti-human GPX4 (Abcam, ab41787, 1:2,000 dilution), anti-human GPX1 (R&D Systems, AF3798, 1:1,000 dilution), and anti-human SQS (Abcam, ab109723 for full-length, ab195046 for truncated, both at 1:1,000 dilution). Secondary antibodies were from LI-COR (1:3,000 dilution). The PVDF membranes labeled with primary and secondary antibodies were scanned using an Odyssey Imaging System (LI-COR). Experiments were performed in biological triplicates, and the mean±s.e. of intensity was plotted.

[6] = system: HT-1080 cells; experiment: Flow cytometry of intracellular Ca(II) levels (Fluo-4); type: cell-based; details: 2 μM FIN56; over the course of 9 h
Text: The third compound set examined was suppressors of both ferroptosis and necrosis. These were predicted to target three proteins: alpha-1 (α1) adrenergic receptors 1B and 1D and calmodulin 3. Activation of α1 activates phospholipase C and increases Ca(II). Calmoduline 3 is a calcium-binding protein. Since all three proteins are relevant to calcium signaling, we hypothesized that calcium mediates FIN56-induced ferroptosis.

Structure (SMILES)	effect of ferroptosis inhibitors (α-tocopherol, deferoxamine) on lethality ([2]; HT-1080 cells)	oncogenic RAS selectivity in the BJ engineered cell line series [3]	ROS accumulation detected using H2-DCFDA [4]	further results
Cc1cccnc1Nc1nc(-c2ccccn2)cs1 [CIL13]				binding to cobalt (II) in vitro [1]: bound to cobalt (II) in vitro
N/C(=N\OC(=O)C12CC3CC(CC(C3)C1)C2)c1ccccc1 [CIL41]	strongly suppressed by ferroptosis inhibitors	did not exhibit oncogenic RAS selectivity	induced ROS accumulation	
O=S(=O)(c1ccc2c(c1)C(=NO)c1cc(S(=O)(=O)N3CCCCC3)ccc1-2)N1CCCCC1 [CIL56, 2,7-bis(piperidin-1-ylsulfonyl)-9H-fluoren-9-one oxime]	suppressed the lethality of low concentrations	retained some degree of selectivity toward oncogenic-RAS-expressing cells		suppression of lethality by antioxidants and iron chelators ([2]; ferroptosis-sensitive HT-1080 cells): up to 10 fold
N/C(Cc1ccc(Cl)cc1)=N\OC(=O)c1cccc2ccccc12 [CIL70]	strongly suppressed by ferroptosis inhibitors	did not exhibit oncogenic RAS selectivity	induced ROS accumulation	
O=S(=O)(NC1CCCCC1)c1ccc2c(c1)C(=NO)c1cc(S(=O)(=O)NC3CCCCC3)ccc1-2 [FIN56, N2,N7-dicyclohexyl-9-(hydroxyimino)-9H-fluorene-2,7-disulfonamide]	fully suppressed	greater oncogenic RAS selectivity		suppression of lethality by mevalonate-pathway modulators (FPP, YM-53601, idebenone) and α-tocopherol ([2]; HT-1080 cells, modulatory profiling scheme): potently suppressed by all the compounds; potency compared to CIL56 ([3]; BJ cell line series): greater potency; kinetics of ROS accumulation compared to (1S, 3R)-RSL3 ([4]; BJeLR, 5 μM FIN56 vs 0.5 μM (1S, 3R)-RSL3, 25 μM H2-DCFDA): slower to induce the accumulation of ROS; abundance of GPX4 protein ([5]; BJeLR, cotreatment with 100 μM α-tocopherol, 10 h, FIN56 5 μM): substantially decreased; intracellular Ca(II) levels (Fluo-4) [6]: increased intracellular Ca(II) levels
CC(C)C[C@@H](C=O)NC(=O)[C@H](CC(C)C)NC(=O)[C@H](CC(C)C)NC(=O)OCc1ccccc1 [MG132, reference compound] (Cbz-Leu-Leu-Leu-aldehyde)				effect on FIN56-induced decrease of GPX4 protein abundance ([5]; 5 μM FIN56): did not inhibit GPX4 degradation significantly
